Key:
Type in all cases: in vivo, human
[1] = Sildenafil treatment of chronic lower extremity changes secondary to peripheral vascular disease (case report); settings: Patient #2; diabetes mellitus
Description: Patient #2 was suffering from chronic changes of both lower extremities secondary to peripheral vascular disease and diabetes mellitus.

[2] = test system: onychiomycosis (fungal infection of the nailbed); experiment: Sildenafil treatment of onychiomycosis (fungal infection of the nailbed) (case report)
Description: In regards to other uses of cycli guanosine 3′,5′-monophosphate type five (cGMP PDE5) inhibitors, including the compound sildenafil, for which we have shown is effective in the treatment of diabetic foot ulcers, it is also within the concept of the present invention to treat other peripheral vascular diseases such as Raynaud's Phenomenon, including CREST syndrome, autoimmune diseases such as systemic lupus erythematosis, rheumatoid diseases and diabetic retinopathies. The treatment of the present invention would also be beneficial in peripheral and autonomic neuropathies or any other disease entity that results from small vessel disease and directly large vessel disease. […] The patient in this case was requesting treatment for erectile dysfunction and again the inventor discovered this unexpected beneficial result. The inventor has observed such results in varied diseases which have the common element of peripheral vascular disease or peripheral neuropathy. The beneficial effect of the method is believed to be due to increase vascular flow of the small vessels which aided the body in healing itself. Patient #4 suffered from erectile dysfunction. They also suffered from onychiomycosis (fungal infection of the nailbed). They were placed on sildenafil treatment taking one 50 mg pill on an as-needed basis.

[3] = Sildenafil treatment of diabetic foot ulcer in patients (case reports)
Description: During the treatment of-the erectile dysfunction it was noted that the foot ulcer was healing. This foot ulcer began approximately two years prior and the patient had been through vascular studies, had seen vascular surgeons, podiatrists, and had been in wound care clinics with minimal results at best. They had also been hospitalized for approximately a month on IV antibiotics, etc. and the threat was very real that the patient was going to require a below the knee amputation. The ulcer would appear to be healing at times only to reoccur to its pretreatment size and depth.

[4] = Sildenafil treatment of erectile dysfunction in patients (case reports)
Procedure: Patient #2 was suffering from chronic changes of both lower extremities secondary to peripheral vascular disease and diabetes mellitus. […] Patient #4 suffered from erectile dysfunction. They also suffered from onychiomycosis (fungal infection of the nailbed). They were placed on sildenafil treatment taking one 50 mg pill on an as-needed basis.

[5] = Patient #4, one 50 mg pill on an as-needed basis

## CCCc1nn(C)c2c(=O)[nH]c(-c3cc(S(=O)(=O)N4CCN(C)CC4)ccc3OCC)nc12 [sildenafil, 5-[2-ethoxy-5-(4-methylpiperazin 1-ylsulphonyl)-phenyl]-1,6-dihydro-1-methyl-3-propylpyrazolo [4,3-d] pyrimidine-7-one]
[1]
  chronic changes of both lower extremities secondary to peripheral vascular disease: significantly improved or resolved completely
[2]; [5]
  fungal infection (onychiomycosis): cured
[2]; treated exclusively with sildenafil, without antifungal medication
  onychiomycosis, particularly of the lower extremity: resolved completely
[3]; Patient #1, insulin dependent diabetic, sildenafil taken for erectile dysfunction, before daily dosing
  diabetic foot ulcer size after sildenafil treatment began: the ulcer was decreasing in the size
[3]; Patient #1, 50 mg of sildenafil once a day, ulcer began approximately two years prior
  resolution of diabetic foot ulcer: complete resolution of the diabetic food ulcer in one month
[3]; Patient #1, continued on 50 mg once a day for the past two years
  reoccurrence of diabetic foot ulcer: without reoccurrence
[3]; general statement, diabetic patients
  effectiveness in the treatment of foot ulcers related to diabetes: very effective
[4]; Patient #2, diabetes mellitus and peripheral vascular disease
  erectile dysfunction: significantly improve
[4]; [5]
  erectile dysfunction: improved
